Each molecule was assayed against human RIP1 kinase domain (2-375) (Homo sapiens (Human), UniProt Q13546) (assay: biochemical). Conditions: Table 1; apparent Ki (Morrison tight-binding fit); 50 nM RIP1 kinase domain, 50 uM ATP, 2 hours incubation; read-out: RIP1 Ki.
Type: biochemical
Procedure, shortened: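 50 nM purified kinase domain from baculovirus-infected insect cells, incubated 2 h with compound in 50 mM Hepes pH 7.5, 30 mM MgCl2, 1 mM DTT, 50 uM ATP, 0.002% Brij-35, 0.5% DMSO. ADP formation read by Transcreener FP at 633 nm excitation. Ki^app fitted with the Morrison tight-binding equation.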

Sequence of human RIP1 kinase domain (2-375) (Q13546 2-375): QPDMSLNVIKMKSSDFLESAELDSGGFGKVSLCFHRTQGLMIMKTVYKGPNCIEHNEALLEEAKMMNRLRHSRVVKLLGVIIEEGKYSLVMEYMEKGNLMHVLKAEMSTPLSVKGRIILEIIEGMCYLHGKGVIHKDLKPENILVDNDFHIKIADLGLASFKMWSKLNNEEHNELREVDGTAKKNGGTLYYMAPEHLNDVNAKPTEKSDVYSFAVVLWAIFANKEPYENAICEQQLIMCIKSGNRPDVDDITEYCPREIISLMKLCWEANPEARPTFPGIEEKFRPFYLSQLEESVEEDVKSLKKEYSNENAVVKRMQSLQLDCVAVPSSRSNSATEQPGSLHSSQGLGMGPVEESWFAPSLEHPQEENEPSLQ

SMILES | Ki [µM]
CC1CCc2noc(C(=O)N[C@H]3COc4ccccc4NC3=O)c2C1 (stereo partly drawn) [Example 62, 5-methyl-N-((S)-4-oxo-2,3,4,5-tetrahydrobenzo[b][1,4]oxazepin-3-yl)-4,5,6,7-tetrahydrobenzo[c]isoxazole-3-carboxamide] | 0.254
CN1C(=O)[C@@H](NC(=O)c2nnc3ccc(C(F)(F)F)nn23)COc2ccccc21 [Example 81, (S)-N-(5-methyl-4-oxo-2,3,4,5-tetrahydrobenzo[b][1,4]oxazepin-3-yl)-6-(trifluoromethyl)-[1,2,4]triazolo[4,3-b]pyridazine-3-carboxamide] | 0.567

Same assay, conditions: Table 3; apparent Ki (Morrison tight-binding fit); 50 nM RIP1 kinase domain, 50 uM ATP, 2 hours incubation; read-out: Ki

SMILES | Ki [µM]
CN1C(=O)[C@@H](NC(=O)c2ncn(Cc3ccccc3)n2)CCn2nccc21 [Example 334, (S)-1-benzyl-N-(4-methyl-5-oxo-5,6,7,8-tetrahydro-4H-pyrazolo[1,5-a][1,3]diazepin-6-yl)-1H-1,2,4-triazole-3-carboxamide] | 0.027

Same assay, conditions: Table 5; apparent Ki (Morrison tight-binding fit); 50 nM RIP1 kinase domain, 50 uM ATP, 2 hours incubation; read-out: Ki

SMILES | Ki [µM]
COC1CN(Cc2cc3n(n2)CC[C@H](NC(=O)c2ncn(Cc4ccccc4)n2)C(=O)N3C)C1 [Example 781, (S)-1-benzyl-N-(2-((3-methoxyazetidin-1-yl)methyl)-4-methyl-5-oxo-5,6,7,8-tetrahydro-4H-pyrazolo[1,5-a][1,3]diazepin-6-yl)-1H-1,2,4-triazole-3-carboxamide] | 0.172
CN1C(=O)[C@@H](NC(=O)c2ncn(Cc3ccccc3)n2)CCn2nc(CN3CCOCC3)cc21 [Example 779, (S)-1-benzyl-N-(4-methyl-2-(morpholinomethyl)-5-oxo-5,6,7,8-tetrahydro-4H-pyrazolo[1,5-a][1,3]diazepin-6-yl)-1H-1,2,4-triazole-3-carboxamide] | 0.155
CCOCCc1cc2n(n1)CC[C@H](NC(=O)c1ncn(Cc3ccccc3F)n1)C(=O)N2C [Example 763] | 0.073
CCn1ccc(-c2cc3n(n2)CCC(NC(=O)c2ncn(Cc4ccccc4)n2)C(=O)N3C)n1 (racemic) [Example 704, 1-benzyl-N-[2-(1-ethylpyrazol-3-yl)-4-methyl-5-oxo-7,8-dihydro-6H-pyrazolo[1,5-a][1,3]diazepin-6-yl]-1,2,4-triazole-3-carboxamide] | 0.095
CC[C@@]1(C)OCc2cnc(C(=O)N[C@H]3COc4ccccc4N(C)C3=O)cc21 (single isomer, unassigned) [Example 765] | 0.015

Same assay, conditions: human RIP1 kinase domain (2-375), 50 uM ATP, 2 hours incubation, Transcreener ADP assay; read-out: RIP1 Ki

SMILES | Ki [µM]
CCn1ncc2cnc(C(=O)N[C@H]3COc4ccccc4N(C)C3=O)cc21 [Example 202, (S)-1-ethyl-N-(5-methyl-4-oxo-2,3,4,5-tetrahydrobenzo[b][1,4]oxazepin-3-yl)-1H-pyrazolo[4,3-c]pyridine-6-carboxamide] | 0.0576
CN1C(=O)C(NC(=O)c2n[nH]c(Cc3ccccc3)n2)CCn2nc(-c3ccccc3)cc21 (stereo not shown) [Example 209, 5-benzyl-N-(4-methyl-5-oxo-2-phenyl-5,6,7,8-tetrahydro-4H-pyrazolo[1,5-a][1,3]diazepin-6-yl)-1H-1,2,4-triazole-3-carboxamide] | 0.0756
O=C(NC1CCn2ncc3c2N(CCO3)C1=O)c1nnc(Cc2ccccc2)[nH]1 (stereo not shown) [Example 199, 5-benzyl-N-(6-oxo-4,5,6,7,8,9-hexahydro-3-oxa-1,5a,9a-triazabenzo[cd]azulen-7-yl)-4H-1,2,4-triazole-3-carboxamide] | 0.766
CN1C(=O)C(NC(=O)c2ncn(Cc3ccccc3)n2)CCn2c1nc1ccccc12 (stereo not shown) [Example 111, 1-benzyl-N-(1-methyl-2-oxo-2,3,4,5-tetrahydro-1H-benzo[4,5]imidazo[1,2-a][1,3]diazepin-3-yl)-1H-1,2,4-triazole-3-carboxamide] | 0.126
CN1C(=O)[C@@H](NC(=O)c2cc3c(cn2)CO[C@@]32CCOC2)COc2ccccc21 (single isomer, unassigned) [Example 159] | 0.327
CN1C(=O)[C@@H](NC(=O)c2ncn(Cc3ccc(F)c(F)c3)n2)CCn2nc(C3CC3)cc21 [Example 223, (S)—N-(2-cyclopropyl-4-methyl-5-oxo-5,6,7,8-tetrahydro-4H-pyrazolo[1,5-a][1,3]diazepin-6-yl)-1-(3,4-difluorobenzyl)-1H-1,2,4-triazole-3-carboxamide] | 0.0319

Same assay, conditions: human RIP1 kinase domain (2-375), Transcreener ADP assay, 50 uM ATP, 2 hours incubation; read-out: RIP1 Ki

SMILES | Ki [µM]
Cc1cc2n(n1)CC[C@@H](NC(=O)c1nnc(Cc3ccccc3)[nH]1)C(=O)N2C [Example 241, (R)-5-benzyl-N-(2,4-dimethyl-5-oxo-5,6,7,8-tetrahydro-4H-pyrazolo[1,5-a][1,3]diazepin-6-yl)-4H-1,2,4-triazole-3-carboxamide] | 8.9
Cc1cc2n(n1)CCC(NC(=O)c1ncn(CC3CC(F)(F)C3)n1)C(=O)N2C (stereo not shown) [Example 248, 1-((3,3-difluorocyclobutyl)methyl)-N-(2,4-dimethyl-5-oxo-5,6,7,8-tetrahydro-4H-pyrazolo[1,5-a][1,3]diazepin-6-yl)-1H-1,2,4-triazole-3-carboxamide] | 1.1

Same assay, conditions: read-out: RIP1 Ki

SMILES | Ki [µM]
C[C@@H]1CCc2[nH]nc(C(=O)N[C@H]3COc4ccccc4N(C)C3=O)c2C1 [Example 60, (R)-5-methyl-N-((S)-5-methyl-4-oxo-2,3,4,5-tetrahydrobenzo[b][1,4]oxazepin-3-yl)-4,5,6,7-tetrahydro-1H-indazole-3-carboxamide] | 0.0156

Same assay, conditions: scale-up batches (Examples A-C); apparent Ki (Morrison tight-binding fit); 50 nM RIP1 kinase domain, 50 uM ATP; read-out: Ki

SMILES | Ki [µM]
Cc1cc2n(n1)CC[C@H](NC(=O)c1ncn(Cc3ccccc3)n1)C(=O)N2C [Example C, (S)-1-benzyl-N-(2,4-dimethyl-5-oxo-5,6,7,8-tetrahydro-4H-pyrazolo[1,5-a][1,3]diazepin-6-yl)-1H-1,2,4-triazole-3-carboxamide] | 0.022

Same assay, conditions: tight-binding apparent inhibition constant; human RIP1 kinase domain (2-375) 50 nM, 50 uM ATP, 2 hours; read-out: Ki

SMILES | Ki [µM]
Cc1cn2c(n1)N(C)C(=O)[C@H](NC(=O)c1ncn(Cc3ccccc3)n1)CC2 (racemic) [Example 693, 1-benzyl-N-[rac-(7R)-2,9-dimethyl-8-oxo-6,7-dihydro-5H-imidazo[1,2-a][1,3]diazepin-7-yl]-1,2,4-triazole-3-carboxamide] | 0.0305
CN1C(=O)[C@@H](NC(=O)c2nc3n(n2)[C@H](C(F)(F)F)CC3)CCn2nccc21 [Example 344, (5S)—N-[(6S)-4-methyl-5-oxo-7,8-dihydro-6H-pyrazolo[1,5-a][1,3]diazepin-6-yl]-5-(trifluoromethyl)-6,7-dihydro-5H-pyrrolo[1,2-b][1,2,4]triazole-2-carboxamide] | 0.226
CN1C(=O)[C@@H](NC(=O)c2ncn(C[C@H]3C[C@@H](C)C3)n2)CCn2nccc21 [Example 496, N—((S)-4-methyl-5-oxo-5,6,7,8-tetrahydro-4H-pyrazolo[1,5-a][1,3]diazepin-6-yl)-1-(((1S,3R)-3-methylcyclobutyl)methyl)-1H-1,2,4-triazole-3-carboxamide] | 0.052
CN1C(=O)[C@@H](NC(=O)c2ncn(CC3CCCO3)n2)CCn2nc(C3CC3)cc21 (stereo partly shown) [Example 470] | 2.4
Cc1cc(F)c2c(c1)OC[C@H](NC(=O)c1nc3n(n1)[C@H](C(F)(F)F)CCC3)C(=O)N2 (single isomer, unassigned) [Example 428] | 0.00814
Cc1cc2n(n1)CC[C@H](NC(=O)c1nc3n(n1)CCN3c1c(F)cccc1F)C(=O)N2C [Example 649, 4-(2,6-difluorophenyl)-N-[(6S)-2,4-dimethyl-5-oxo-7,8-dihydro-6H-pyrazolo[1,5-a][1,3]diazepin-6-yl]-5,6-dihydroimidazo[1,2-b][1,2,4]triazole-2-carboxamide] | 0.14
CN1C(=O)[C@@H](NC(=O)c2ncc3c(n2)[C@]2(CCCOC2)OC3)COc2ccccc21 (racemic) [Example 696, rac-(75)-N-[rac-(3S)-5-methyl-4-oxo-2,3-dihydro-1,5-benzoxazepin-3-yl]spiro[5H-furo[3,4-d]pyrimidine-7,3′-tetrahydropyran]-2-carboxamide] | 0.12
CN1C(=O)[C@@H](NC(=O)c2ncc3cnn(C(F)(F)F)c3n2)COc2ccccc21 [Example 360, N-[(3S)-5-methyl-4-oxo-2,3-dihydro-1,5-benzoxazepin-3-yl]-1-(trifluoromethyl)pyrazolo[3,4-d]pyrimidine-6-carboxamide] | 0.0104
CN1C(=O)[C@@H](NC(=O)c2ncn(CC3CCCCO3)n2)CCn2nc(C3CC3)cc21 (stereo partly shown) [Example 477] | 0.29
CN1C(=O)[C@@H](NC(=O)c2nc3n(n2)[C@H](c2ccccc2)CC3)CCn2nccc21 (single isomer, unassigned) [Example 363] | 0.0212
CN1C(=O)[C@@H](NC(=O)c2ncn(C[C@H]3C[C@H](C)C3)n2)CCn2nccc21 [Example 497, N—((S)-4-methyl-5-oxo-5,6,7,8-tetrahydro-4H-pyrazolo[1,5-a][1,3]diazepin-6-yl)-1-(((1R,3S)-3-methylcyclobutyl)methyl)-1H-1,2,4-triazole-3-carboxamide] | 0.041
Cc1cc(F)c2c(c1)OC[C@H](NC(=O)c1nc3n(n1)C(C(C)C)CC3)C(=O)N2 (stereo partly drawn) [Example 345, N-[(3S)-6-fluoro-8-methyl-4-oxo-3,5-dihydro-2H-1,5-benzoxazepin-3-yl]-5-isopropyl-6,7-di hydro-5H-pyrrolo[1,2-b][1,2,4]triazole-2-carboxamide] | 0.02
Cc1cc2n(n1)CC[C@H](NC(=O)c1nc3n(n1)[C@@H](c1ccccc1)CC3)C(=O)N2C [Example 615, (5R)-5-phenyl-N-[(6S)-2,4-dimethyl-5-oxo-7,8-dihydro-6H-pyrazolo[1,5-a][1,3]diazepin-6-yl]-6,7-dihydro-5H-pyrrolo[1,2-b][1,2,4]triazole-2-carboxamide] | 0.011
